Measured values: PubChem BioAssay AID2060889 (Molecular Pharmacology Branch, DTP, NCI, 2025)

Test system: LG0567-F671-PDC complex spheroids viability
Assay: Anticancer human tumor LG0567-F671-PDC patient-derived lung adenocarcinoma cell line growth inhibition [RAS]
Conditions: for IC50: curve of first compound; for viability, T/C: stronger effect = lower value
From the text: RAS pathway inhibitors in Combinations in Complex Spheroids
A high-throughput screen of multi-cell type tumor spheroids was designed to identify active combinations of RAS pathway inhibitors and targeted small molecules. Complex spheroids include a stromal component modeled by human endothelial cells (HUVEC) and fibroblasts modeled by human mesenchymal stem cells (MSCs). The concentration ranges selected for each drug and investigational agent were based upon clinically achievable concentrations if the clinical Cmax of the agent was known.
Compounds. The drugs and investigational agents: abemaciclib (NSC768073), cobimetinib (NSC768068), divarasib (GDC6063, NSC841802), docetaxel (NSC628503), GDC-1971 (RLY-1971, NSC841576), gemcitabine (NSC613327), inavolisib (NSC800729), ipatasertib (NSC767898), KB-0742 (NSC834161), MRTX-1133 (NSC836407), osimertinib (NSC779217), RMC-4630 (NSC839698), RMC-6236 (NSC851965), RMC-6291 (NSC852671), Ro-3306 (NSC812927), sapanisertib (NSC764658), SN-38 (NSC673596), staurosporine (NSC755774), SY5609 (NSC837396), and tovorafenib (DAY101, NSC766906), were obtained from the National Cancer Institute (NCI) Developmental Therapeutics Program Chemical Repository. The FDA-approved anticancer drug set is available from the NCI Developmental Therapeutics Program. […] The stock solutions were prepared in dimethyl sulfoxide (DMSO, Sigma-Aldrich, St. Louis, MO, cat. D2650) at 800-fold the tested concentration and stored at -70 degrees C prior to their use. All drugs and investigational agents were tested over a range starting from a high concentration at or near the clinical Cmax and decreasing in half-log increments. If the clinical Cmax for an agent had not been determined, the highest concentration tested was 10 microM.
Cell Culture. All cells were maintained in an incubator at 37 degrees C and 5% CO2 with 95% humidity. The PDC lines were cultured according to standard operating procedures established by the NCI PDMR. All PDCs were thawed and cultured in Matrigel-coated flasks prepared with a working solution of 1X Ham's F-12 nutrient mix, without supplementation (Invitrogen, Waltham, MA, cat. 11765054), 100 U/mL penicillin-streptomycin (Invitrogen, cat. 15140122), and 2.5% Matrigel (Corning Inc., Corning, NY, cat. 354248) for the first three passages. The 362531-283-R-J2-PDC and 782815-120-R-J1-PDC lines were cultured in 6C/Colon 1B media, which includes advanced DMEM/F-12 (Thermo Fisher Scientific, cat. 12634028), 10 mM HEPES (Thermo Fisher Scientific, cat. 15630080), 1X GlutaMAX supplement (Thermo Fisher Scientific, cat. 35050061), 0.1 mg/mL primocin (InvivoGen, San Diego, CA, cat. ant-pm-2), 10% defined fetal bovine serum, heat inactivated (HyClone Laboratories Inc., Logan, UT, cat. SH30070.03HI), 50% L-WRN conditioned media (ATCC, cat. CRL-3276), 1.25 mM N-Acetyl-L-cysteine (Sigma-Aldrich, cat. A9165), 10 mM nicotinamide (Sigma-Aldrich, cat. N0636), 1X B-27 supplement (Thermo Fisher Scientific, cat. 17504044), 1X N-2 supplement (Thermo Fisher Scientific, cat. 17502048), 50 ng/mL human EGF (Thermo Fisher Scientific, cat. PHG0311), and 10 microM Y-27632 dihydrochloride (Tocris Bioscience, cat. 1254). The K12877-001-R-J1-PDC line was cultured in 6I media, which includes all 6C/Colon 1B media plus 10 ng/mL human FGF-10 (PeproTech, cat. 100-26), 1 ng/mL human FGF-2 (PeproTech, cat. 100-18B), 1 µM prostaglandin E2 (Tocris Bioscience, cat. 2296), […] hydrocortisone (Sigma-Aldrich, cat. H4001), and […] bovine insulin (Sigma-Aldrich, cat. I6634). The K86415-001-R-J1-PDC line was cultured in 6D media, which includes all 6C/Colon 1B media components minus the L-WRN conditioned media. The 485176-168-R4-J1-PDC was cultured in PANC media, which includes all 6C/Colon 1B media plus 100 ng/mL human FGF-10 (PeproTech, cat. 100-26), 500 nM SB-431542 (Selleckchem, cat. S1067), and 10 nM gastrin (Tocris Bioscience, cat. 3006). […]
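Also: spheroids exposed to compound for seven days before readout.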
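For IC50 in this document: luminescence signal used as a proxy for viable cells.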

CC(C)n1nc(-c2ccc3oc(N)nc3c2)c2c(N)ncnc21 + C#Cc1c(F)ccc2cc(O)cc(-c3ncc4c(N5CC6CCC(C5)N6)nc(OCC56CCCN5CC(F)C6)nc4c3F)c12
IC50 (second compound 0.0316 µM): 19.6 nM | IC50 (second compound 0.1 µM): 17.8 nM | IC50 (second compound 0.316 µM): 1.32 nM | IC50 (second compound 1 µM): < 0.316 nM | IC50 (second compound 3.16 µM): < 0.316 nM | IC50 (second compound 10 µM): < 0.316 nM | viability, T/C (second compound 0.0316 µM, first compound 0.000316 µM): 90.7% | viability, T/C (second compound 0.0316 µM, first compound 0.001 µM): 77.8% | viability, T/C (second compound 0.0316 µM, first compound 0.00316 µM): 83.4% | viability, T/C (second compound 0.0316 µM, first compound 0.01 µM): 58.3% | viability, T/C (second compound 0.0316 µM, first compound 0.0316 µM): 44.3% | viability, T/C (second compound 0.0316 µM, first compound 0.1 µM): 34.1% | viability, T/C (second compound 0.1 µM, first compound 0.000316 µM): 73.3% | viability, T/C (second compound 0.1 µM, first compound 0.001 µM): 73.5% | viability, T/C (second compound 0.1 µM, first compound 0.00316 µM): 61.1% | viability, T/C (second compound 0.1 µM, first compound 0.01 µM): 58.2% | viability, T/C (second compound 0.1 µM, first compound 0.0316 µM): 43.2% | viability, T/C (second compound 0.1 µM, first compound 0.1 µM): 33% | viability, T/C (second compound 0.316 µM, first compound 0.000316 µM): 52.9% | viability, T/C (second compound 0.316 µM, first compound 0.001 µM): 48.9% | viability, T/C (second compound 0.316 µM, first compound 0.00316 µM): 49.1% | viability, T/C (second compound 0.316 µM, first compound 0.01 µM): 40.8% | viability, T/C (second compound 0.316 µM, first compound 0.0316 µM): 34.2% | viability, T/C (second compound 0.316 µM, first compound 0.1 µM): 28.5% | viability, T/C (second compound 1 µM, first compound 0.000316 µM): 36.7% | viability, T/C (second compound 1 µM, first compound 0.001 µM): 36.2% | viability, T/C (second compound 1 µM, first compound 0.00316 µM): 30.8% | viability, T/C (second compound 1 µM, first compound 0.01 µM): 24.9% | viability, T/C (second compound 1 µM, first compound 0.0316 µM): 22.3% | viability, T/C (second compound 1 µM, first compound 0.1 µM): 18.5% | viability, T/C (second compound 3.16 µM, first compound 0.000316 µM): 21.4% | viability, T/C (second compound 3.16 µM, first compound 0.001 µM): 19.9% | viability, T/C (second compound 3.16 µM, first compound 0.00316 µM): 20.1% | viability, T/C (second compound 3.16 µM, first compound 0.01 µM): 15.6% | viability, T/C (second compound 3.16 µM, first compound 0.0316 µM): 13.6% | viability, T/C (second compound 3.16 µM, first compound 0.1 µM): 9.08% | viability, T/C (second compound 10 µM, first compound 0.000316 µM): 11.7% | viability, T/C (second compound 10 µM, first compound 0.001 µM): 10.7% | viability, T/C (second compound 10 µM, first compound 0.00316 µM): 8.74% | viability, T/C (second compound 10 µM, first compound 0.01 µM): 9.19% | viability, T/C (second compound 10 µM, first compound 0.0316 µM): 6.42% | viability, T/C (second compound 10 µM, first compound 0.1 µM): 5.01%
